How the values were obtained:
[1] = molecular target: Carbonic anhydrase 5A, mitochondrial (Homo sapiens) (UniProt P35218); experiment: Activation of human recombinant CA5A after 15 mins by stopped-flow CO2 hydration assay
[2] = molecular target: Carbonic anhydrase 7 (Homo sapiens) (UniProt P43166); experiment: Activation of human recombinant CA7 after 15 mins by stopped-flow CO2 hydration assay
[3] = molecular target: Carbonic anhydrase 9 (Homo sapiens) (UniProt Q16790); experiment: Activation of human recombinant CA9 after 15 mins by stopped-flow CO2 hydration assay
[4] = molecular target: Carbonic anhydrase 12 (Homo sapiens) (UniProt O43570); experiment: Activation of human recombinant CA12 after 15 mins by stopped-flow CO2 hydration assay
Carbonic anhydrase 12 (Homo sapiens), sequence (O43570 whole entry): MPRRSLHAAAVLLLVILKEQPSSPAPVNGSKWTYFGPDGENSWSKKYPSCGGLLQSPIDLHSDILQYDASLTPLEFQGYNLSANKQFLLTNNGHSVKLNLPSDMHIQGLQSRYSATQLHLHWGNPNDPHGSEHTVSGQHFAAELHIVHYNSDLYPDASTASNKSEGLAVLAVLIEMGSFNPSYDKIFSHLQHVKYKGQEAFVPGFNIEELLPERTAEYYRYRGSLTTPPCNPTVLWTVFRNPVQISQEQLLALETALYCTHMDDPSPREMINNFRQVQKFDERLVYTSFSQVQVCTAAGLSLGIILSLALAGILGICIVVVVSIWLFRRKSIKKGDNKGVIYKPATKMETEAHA

[5] = molecular target: Carbonic anhydrase 14 (Homo sapiens) (UniProt Q9ULX7); experiment: Activation of human recombinant CA14 after 15 mins by stopped-flow CO2 hydration assay
Carbonic anhydrase 14 (Homo sapiens), sequence (Q9ULX7 whole entry): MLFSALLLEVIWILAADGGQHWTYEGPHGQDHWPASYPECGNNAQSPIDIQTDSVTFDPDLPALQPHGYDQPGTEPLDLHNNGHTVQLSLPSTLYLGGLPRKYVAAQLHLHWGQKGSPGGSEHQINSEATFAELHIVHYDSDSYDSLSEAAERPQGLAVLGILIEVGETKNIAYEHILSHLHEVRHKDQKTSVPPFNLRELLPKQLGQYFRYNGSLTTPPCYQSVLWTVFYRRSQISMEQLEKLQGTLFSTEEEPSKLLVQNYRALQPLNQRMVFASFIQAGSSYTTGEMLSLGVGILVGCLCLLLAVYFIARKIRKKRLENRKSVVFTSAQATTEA

[6] = molecular target: Carbonic anhydrase 2 (Homo sapiens) (UniProt P00918); experiment: Activation of human recombinant CA2 after […] by stopped-flow CO2 hydration assay
[7] = molecular target: Carbonic anhydrase 5B, mitochondrial (Homo sapiens) (UniProt Q9Y2D0); experiment: Activation of human recombinant CA5B after 15 mins by stopped-flow CO2 hydration assay
Carbonic anhydrase 5B, mitochondrial (Homo sapiens), sequence (Q9Y2D0 whole entry): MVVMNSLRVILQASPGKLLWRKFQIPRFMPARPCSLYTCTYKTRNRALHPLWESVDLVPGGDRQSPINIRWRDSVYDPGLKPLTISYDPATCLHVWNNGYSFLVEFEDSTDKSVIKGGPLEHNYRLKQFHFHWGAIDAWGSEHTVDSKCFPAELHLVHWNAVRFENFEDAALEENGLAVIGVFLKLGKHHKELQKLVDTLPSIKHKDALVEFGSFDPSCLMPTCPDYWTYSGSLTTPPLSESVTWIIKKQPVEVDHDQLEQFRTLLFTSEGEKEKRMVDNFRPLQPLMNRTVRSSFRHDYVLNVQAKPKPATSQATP

[8] = molecular target: Carbonic anhydrase 13 (Mus musculus) (UniProt Q9D6N1); experiment: Activation of mouse recombinant CA13 after 15 mins by stopped-flow CO2 hydration assay
Carbonic anhydrase 13 (Mus musculus), sequence (Q9D6N1 whole entry, looked up): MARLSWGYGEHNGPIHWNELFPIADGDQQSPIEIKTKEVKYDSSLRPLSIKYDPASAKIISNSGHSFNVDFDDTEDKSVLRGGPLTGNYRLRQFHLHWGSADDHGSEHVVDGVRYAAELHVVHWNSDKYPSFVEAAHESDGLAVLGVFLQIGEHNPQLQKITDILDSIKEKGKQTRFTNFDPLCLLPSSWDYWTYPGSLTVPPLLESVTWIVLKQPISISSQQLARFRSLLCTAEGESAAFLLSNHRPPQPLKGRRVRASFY

Carbonic anhydrase 7 (Homo sapiens), sequence (P43166 whole entry): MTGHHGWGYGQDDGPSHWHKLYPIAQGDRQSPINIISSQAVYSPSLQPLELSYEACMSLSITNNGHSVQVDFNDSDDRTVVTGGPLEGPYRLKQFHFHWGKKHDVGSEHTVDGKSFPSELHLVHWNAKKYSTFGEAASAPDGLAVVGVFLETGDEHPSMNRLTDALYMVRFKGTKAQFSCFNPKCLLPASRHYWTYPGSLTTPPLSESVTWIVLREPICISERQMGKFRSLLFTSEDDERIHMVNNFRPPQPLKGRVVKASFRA
Carbonic anhydrase 5A, mitochondrial (Homo sapiens), sequence (P35218 whole entry): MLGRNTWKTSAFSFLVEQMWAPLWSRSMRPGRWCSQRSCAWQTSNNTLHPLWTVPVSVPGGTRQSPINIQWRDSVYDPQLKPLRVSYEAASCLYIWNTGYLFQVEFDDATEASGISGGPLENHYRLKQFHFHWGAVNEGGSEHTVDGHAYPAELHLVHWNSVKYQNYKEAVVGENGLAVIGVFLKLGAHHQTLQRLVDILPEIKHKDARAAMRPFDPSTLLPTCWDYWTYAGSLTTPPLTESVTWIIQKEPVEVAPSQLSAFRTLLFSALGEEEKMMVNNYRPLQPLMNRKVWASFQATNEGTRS

Structure (SMILES) | Ka [1] | Ka [2] | Ka [3] | Ka [4] | Ka [5] | Ka [6] | Ka [7] | Ka [8]
CNC[C@@H](O)c1ccc(O)c(O)c1 | 63 µM | 60 µM | 0.87 µM | 0.41 µM | 36 µM | – | – | –
N[C@H](Cc1c[nH]c2ccccc12)C(=O)O | 1.24 µM | 39 µM | 43 µM | 28 µM | 18 µM | 0.37 µM | 1.35 µM | 0.81 µM
N[C@@H](Cc1c[nH]c2ccccc12)C(=O)O | 1.13 µM | 57 µM | 37 µM | 26 µM | 16 µM | 1.13 µM | 0.89 µM | 16 µM

From ChEMBL document CHEMBL1144196, “Carbonic anhydrase activators: kinetic and X-ray crystallographic study for the interaction of D- and L-tryptophan with the mammalian isoforms I-XIV” (Bioorg Med Chem, 2008)
